From patent publication US6440901B1, “Calcium chloride fruit blossom thinning agent” (priority 2000, dated 2002)

What was measured:
[1] = test system: “WVC” Fuji Apples; details: for Mean Fruit Area per Limb: East Wenatchee, airblast spray at bloom; for Mean Fruit per 100 Clusters: fruit set
Protocol: A first field trial to test the effects of calcium chloride as a bloom thinning agent was performed in an orchard located in East Wenatchee, Washington, by the Washington Tree Fruit Research Commission on a commercial block of a Fuji apple cultivar of the variety “WVC.” Two areas of the block's apples were each treated with two alternative chemical thinning compounds. Calcium chloride was used in the first area. […] A third area of the apple block was utilized as a control group and treated with water. The treatments were all performed with conventional test methodologies and procedures.
Other than the application of the thinning compounds, all three blocks were managed without differentiation. All treatments were applied utilizing standard airblast sprayers and spreader-stickers as appropriate. The experiments were in a randomized complete block design with 2 to 4 replications. […] Results of this trial are listed in TABLE 1 and shown in the graphs of FIGS. 1 and 3.

[2] = test system: “Lutz” Red Delicious Apples; details: for Mean Fruit Area per Limb: Azwell; for Mean Fruit per 100 Clusters: fruit set
Protocol: A second field trial to test the effects of calcium chloride as a bloom thinning agent was performed at an orchard located in Azwell, Washington, by the Washington Tree Fruit Research Commission on a commercial block of a Red Delicious apple cultivar of the variety “Lutz.” Three areas of the block's apples were each treated with one of three alternative chemical thinning compounds. […] Calcium chloride was used in the second area and “Crocker's” lime and sulfur was used in the third area. A fourth area of the apple block was utilized as a control group and treated with water as a control. The treatments were all performed with conventional test methodologies and procedures. Other than the application of the thinning compounds, all four blocks were managed without differentiation.

[3] = test system: apples; assay: Overall observations of both field trials (damage, thinning, fruit L/D); format: in vivo, apple
Protocol: A series of field trials comparing the calcium chloride composition of the present invention to other alternative chemical thinners were performed to verify efficacy as a bloom thinner. The trials followed labeling recommendations and best management practices for all applications. Two of these trials are discussed as follows, but are not intended to specifically limit the invention: […]

ammonium thiosulfate [ATS, reference compound]
% Flower Clusters Blanked [1]: 38.2%
% Flower Clusters Doubled [1]: 11.9%
% Flower Clusters Singled [1]: 47.4%
% Flower Clusters Tripled [1]: 1.9%
% Flower Clusters w/4+ Fruit [1]: 0.7%
Mean Fruit Area per Limb [1]: 5.8 cm^2
Mean Fruit per 100 Clusters [1]: 84
% Flower Clusters Blanked [2]: 47.0%
% Flower Clusters Doubled [2]: 12.8%
% Flower Clusters Singled [2]: 38.8%
% Flower Clusters Tripled [2]: 1.5%
% Flower Clusters w/4+ Fruit [2]: 0.0%
Mean Fruit Area per Limb [2]: 2.7 cm^2
Mean Fruit per 100 Clusters [2]: 69

[Ca+2].[Cl-].[Cl-] [CaCl, calcium chloride]
% Flower Clusters Blanked [1]: 40.0%
% Flower Clusters Doubled [1]: 12.5%
% Flower Clusters Singled [1]: 45.5%
% Flower Clusters Tripled [1]: 2.0%
% Flower Clusters w/4+ Fruit [1]: 0.1%
Mean Fruit Area per Limb [1]: 5.0 cm^2
Mean Fruit per 100 Clusters [1]: 79
% Flower Clusters Blanked [2]: 41.7%
% Flower Clusters Doubled [2]: 12.7%
% Flower Clusters Singled [2]: 44.4%
% Flower Clusters Tripled [2]: 1.0%
% Flower Clusters w/4+ Fruit [2]: 0.2%
Mean Fruit Area per Limb [2]: 2.6 cm^2
Mean Fruit per 100 Clusters [2]: 73
impact on average fruit length over diameter (L/D) ratio ([3]; harvested fruit): minimally impacted
difference in bloom thinning between treatments ([3]; with feedback on hand thinning time per tree, ATS versus calcium chloride): no consistent, significant differences between ATS and calcium chloride
